Source: doi:10.1101/2025.11.20.689572v1 (biorxiv, 2025)

Experiments:
H4 = molecular target: T1, H4 (Homo sapiens, UniProt Q9H3N8); assay: competitive radioligand binding, HEK293 membranes
T1 construct: gene HRH4; full-length receptor; HEK293 cell membranes
Description: competitive radioligand binding, HEK293 membranes on H4

SSTR4 = SSTR4 (Homo sapiens, UniProt P31391); assay: cell-based; set-up: PRESTO-Tango beta-arrestin2 recruitment, luciferase luminescence, concentration-response; details: HTLA, read-out: N-Desmethyl Xanomeline; Assay=Tango; agonist mode, % of control agonist
Chain of SSTR4 (P31391 whole entry): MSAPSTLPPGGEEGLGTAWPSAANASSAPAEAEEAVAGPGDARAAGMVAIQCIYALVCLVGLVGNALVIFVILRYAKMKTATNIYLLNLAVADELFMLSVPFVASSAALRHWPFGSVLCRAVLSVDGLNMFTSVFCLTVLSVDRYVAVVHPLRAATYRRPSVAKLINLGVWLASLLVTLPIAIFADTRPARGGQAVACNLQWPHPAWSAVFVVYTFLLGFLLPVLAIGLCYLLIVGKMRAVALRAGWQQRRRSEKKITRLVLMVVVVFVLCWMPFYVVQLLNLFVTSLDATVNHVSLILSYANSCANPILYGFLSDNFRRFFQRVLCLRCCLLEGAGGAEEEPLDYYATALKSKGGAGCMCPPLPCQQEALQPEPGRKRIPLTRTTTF
Protocol: (§1) Off-target agonism across the human GPCRome was profiled using PRESTO-Tango, following established protocols with minor adaptations [10]–[12]. […] After ~6 h recovery, cells were transfected with 20 ng plasmid DNA per well and incubated overnight. The next day, 10 µL of test compound (prepared in DMEM + 1% dFBS) was added, and plates were incubated overnight. Media and compounds were removed, and 20 µL per well of Bright-Glo luciferase reagent diluted in assay buffer (Hank’s Balanced Salt Solution (HBSS), 20 mM HEPES, pH 7.4) was added. After 20 min at room temperature (dark), luminescence was recorded. Each plate included the dopamine D2 receptor (DRD2) stimulated with 100 nM quinpirole as a positive control. For the GPCRome screen, each receptor was tested in quadruplicate at 0 and 10 µM compound (final). Responses were expressed as fold change relative to the basal (0 µM) condition. Follow-up concentration–response assays were performed under identical conditions except that serial dilutions of compounds (maximum ~30 µM, final) were added to generate full concentration–response curves.

HTR1D = HTR1D (Homo sapiens, UniProt P28221); assay: cell-based; set-up: species or system HEK293; TRUPATH BRET2 G-protein dissociation; antagonist mode against agonist EC80; details: N-Desmethyl Xanomeline, agonist mode
Chain of HTR1D (P28221 whole entry): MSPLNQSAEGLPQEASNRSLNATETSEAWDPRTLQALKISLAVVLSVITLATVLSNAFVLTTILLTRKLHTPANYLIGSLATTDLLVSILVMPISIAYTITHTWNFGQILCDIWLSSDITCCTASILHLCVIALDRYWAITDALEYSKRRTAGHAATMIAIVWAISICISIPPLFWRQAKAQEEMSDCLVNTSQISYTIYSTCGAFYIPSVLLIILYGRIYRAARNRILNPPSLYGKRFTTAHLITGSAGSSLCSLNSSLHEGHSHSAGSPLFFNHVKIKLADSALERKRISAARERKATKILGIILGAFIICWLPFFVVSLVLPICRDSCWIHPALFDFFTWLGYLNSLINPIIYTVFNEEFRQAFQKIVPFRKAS

HRH4 = HRH4 (Homo sapiens, UniProt Q9H3N8); assay: cell-based; set-up: species or system HEK293; TRUPATH BRET2 G-protein dissociation; antagonist mode against agonist EC80; details: N-Desmethyl Xanomeline, agonist mode
Chain of HRH4 (Q9H3N8 whole entry): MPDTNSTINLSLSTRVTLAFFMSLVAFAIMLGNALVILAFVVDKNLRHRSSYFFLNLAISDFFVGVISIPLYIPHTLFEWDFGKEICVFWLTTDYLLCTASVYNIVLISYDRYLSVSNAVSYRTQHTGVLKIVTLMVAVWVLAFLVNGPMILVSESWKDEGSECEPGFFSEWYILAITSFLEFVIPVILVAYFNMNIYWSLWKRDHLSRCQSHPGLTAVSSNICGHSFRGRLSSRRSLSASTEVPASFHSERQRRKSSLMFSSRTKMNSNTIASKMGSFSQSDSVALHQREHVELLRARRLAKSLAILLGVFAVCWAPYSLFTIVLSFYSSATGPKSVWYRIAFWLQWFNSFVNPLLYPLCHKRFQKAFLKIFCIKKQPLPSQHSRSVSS

HTR2C = molecular target: T2, HTR2C (Homo sapiens, UniProt P28335); assay: cell-based; set-up: species or system HEK293; TRUPATH BRET2 G-protein dissociation; antagonist mode against agonist EC80; details: Assay=Gq; agonist mode
T2 sequence (P28335 1-458): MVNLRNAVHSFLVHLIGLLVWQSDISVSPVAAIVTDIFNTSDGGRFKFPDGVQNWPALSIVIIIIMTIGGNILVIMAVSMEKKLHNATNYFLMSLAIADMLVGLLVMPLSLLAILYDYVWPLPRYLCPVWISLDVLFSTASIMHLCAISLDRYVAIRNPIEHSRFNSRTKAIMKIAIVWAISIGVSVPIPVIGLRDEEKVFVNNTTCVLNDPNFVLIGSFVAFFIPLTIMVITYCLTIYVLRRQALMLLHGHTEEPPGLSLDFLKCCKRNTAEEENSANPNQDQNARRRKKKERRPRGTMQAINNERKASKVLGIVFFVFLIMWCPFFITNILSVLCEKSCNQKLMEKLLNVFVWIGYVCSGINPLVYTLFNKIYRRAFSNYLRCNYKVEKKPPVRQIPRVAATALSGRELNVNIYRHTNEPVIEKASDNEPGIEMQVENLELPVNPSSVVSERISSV

DRD4 = molecular target: T3, DRD4 (Homo sapiens, UniProt P21917); assay: cell-based; set-up: PRESTO-Tango beta-arrestin2 recruitment, luciferase luminescence, concentration-response; details: HTLA, read-out: Xanomeline; Assay=Tango; agonist mode, % of control agonist
T3 sequence (P21917 1-419): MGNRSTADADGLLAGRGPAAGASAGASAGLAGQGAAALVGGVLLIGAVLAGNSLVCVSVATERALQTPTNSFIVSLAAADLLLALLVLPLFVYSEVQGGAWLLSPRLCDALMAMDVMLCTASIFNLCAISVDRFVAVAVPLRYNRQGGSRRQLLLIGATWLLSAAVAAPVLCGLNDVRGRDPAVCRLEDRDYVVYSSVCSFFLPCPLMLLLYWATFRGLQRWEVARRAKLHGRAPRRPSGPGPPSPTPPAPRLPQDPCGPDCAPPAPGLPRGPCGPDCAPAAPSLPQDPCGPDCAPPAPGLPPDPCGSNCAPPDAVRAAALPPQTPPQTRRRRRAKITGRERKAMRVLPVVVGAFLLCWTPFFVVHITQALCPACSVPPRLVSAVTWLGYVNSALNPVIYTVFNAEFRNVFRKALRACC
Protocol: as §1

CHRM3 = CHRM3 (Homo sapiens, UniProt P20309); assay: cell-based; set-up: species or system HEK293; TRUPATH BRET2 G-protein dissociation; antagonist mode against agonist EC80; details: Xanomeline, Assay=Gq; agonist mode
Chain of CHRM3 (P20309 whole entry): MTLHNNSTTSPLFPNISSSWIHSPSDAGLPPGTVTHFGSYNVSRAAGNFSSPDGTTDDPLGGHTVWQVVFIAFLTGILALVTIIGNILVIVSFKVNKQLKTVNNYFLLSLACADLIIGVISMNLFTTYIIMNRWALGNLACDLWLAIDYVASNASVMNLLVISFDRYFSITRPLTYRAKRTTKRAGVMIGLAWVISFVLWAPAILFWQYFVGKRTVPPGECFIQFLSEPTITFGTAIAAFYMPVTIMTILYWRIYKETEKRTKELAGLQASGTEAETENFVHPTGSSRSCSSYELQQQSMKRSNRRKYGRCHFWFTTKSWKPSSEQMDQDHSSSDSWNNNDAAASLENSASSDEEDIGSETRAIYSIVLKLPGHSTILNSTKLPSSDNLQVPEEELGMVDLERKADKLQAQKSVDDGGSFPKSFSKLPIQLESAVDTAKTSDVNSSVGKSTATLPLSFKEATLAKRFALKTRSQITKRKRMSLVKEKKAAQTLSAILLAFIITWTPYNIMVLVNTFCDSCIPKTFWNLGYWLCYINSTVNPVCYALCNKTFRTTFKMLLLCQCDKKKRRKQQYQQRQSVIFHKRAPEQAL

H3 = molecular target: T4, H3 (Homo sapiens, UniProt Q9Y5N1); assay: competitive radioligand binding, HEK293 membranes
T4 construct: gene HRH3; full-length receptor; HEK293 cell membranes
T4 sequence (Q9Y5N1 whole entry): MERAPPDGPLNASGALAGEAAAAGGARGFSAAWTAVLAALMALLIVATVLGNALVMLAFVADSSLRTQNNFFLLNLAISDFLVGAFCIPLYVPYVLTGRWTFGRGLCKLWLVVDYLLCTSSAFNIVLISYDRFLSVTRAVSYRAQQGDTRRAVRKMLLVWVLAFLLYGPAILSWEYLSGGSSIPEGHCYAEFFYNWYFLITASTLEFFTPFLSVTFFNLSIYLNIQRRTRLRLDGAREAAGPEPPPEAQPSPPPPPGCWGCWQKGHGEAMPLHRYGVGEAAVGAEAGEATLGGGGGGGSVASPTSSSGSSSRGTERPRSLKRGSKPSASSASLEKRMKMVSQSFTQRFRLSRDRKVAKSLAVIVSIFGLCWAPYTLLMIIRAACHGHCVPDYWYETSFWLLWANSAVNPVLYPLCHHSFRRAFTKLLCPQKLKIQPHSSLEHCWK
Description: competitive radioligand binding, HEK293 membranes on H3

T1 sequence (Q9H3N8 whole entry): as the sequence (Q9H3N8 whole entry) above

Compound | Ki (H4) [nM] | Emax (SSTR4) [%] | EC50 (HTR1D; Assay=Gi2) [nM] | EC50 (HTR1D; Assay=GoA) [nM] | EC50 (HTR1D; Assay=GoB) [nM] | EC50 (HTR1D; Assay=Gz) [nM] | EC50 (HRH4; Assay=Gi1) [nM] | EC50 (HRH4; Assay=Gi2) [nM] | EC50 (HRH4; Assay=Gi3) [nM] | EC50 (HRH4; Assay=GoA) [nM] | EC50 (HTR2C) [nM] | Emax (DRD4) [%] | EC50 (CHRM3) [nM] | Ki (H3) [nM]
CCCCCCOc1nsnc1C1=CCCNC1 [N-desmethylxanomeline] | 363 | 2.88 | 36.2 | 63.1 | 25.8 | 146 | 4870 | 1390 | 6360 | 6250 | 1940 | – | – | –
CCCCCCOc1nsnc1C1=CCCN(C)C1 [Xanomeline] | – | – | – | – | – | – | – | – | – | – | – | 11.4 | 53.4 | 794
